Laboratory results published in article PMC6010082, “Synthesis and in vitro antiproliferative and antibacterial activity of new thiazolidine-2,4-dione derivatives” (Journal of Enzyme Inhibition and Medicinal Chemistry, 2017).
In brackets after ≈: the same amount, converted by molar mass.

Columns and labels:
A549 = system: A549; design: method as in earlier work; settings: A549 tumour cells; ref 6 (Alegaon et al.); cited from earlier work
MCF-7 = system: MCF-7; design: method as in earlier work; settings: MCF-7 tumour cells; ref 6 (Alegaon et al.); cited from earlier work
[1] = system: human lung carcinoma (A549); assay: MTT antiproliferative assay, A549 cells; format: cell-based; settings: for IC50: Homo sapiens, MTT, 48 h exposure, read-out: IC50 [µg/ml] ± SEM, A549; for SI [IC50BJ/IC50], A549: safety index = IC50 normal cells (BJ)/IC50 A549
Experimental: (§1) The experiment was carried out using normal human skin fibroblasts (BJ) and tumour cell lines: human lung carcinoma (A549), human hepatocellular carcinoma (HepG2), and human breast adenocarcinoma (MCF-7). All cell lines were obtained from ATCC (American Type Culture Collection, England, UK) and cultured in the appropriate, recommended by ATCC, culture medium, additionally supplemented with 10% foetal bovine serum and antibiotics: 100 U/ml penicillin and 100 µg/ml streptomycin. The cells were maintained at 37 °C in a humidified atmosphere of 5% CO2 and 95% air. Antiproliferative activity of the new compounds was assessed by, commonly used for this purpose, colorimetric MTT assay. Cells with active mitochondrial dehydrogenases reduced intracellularly the tetrazolium dye into purple formazan, which is proportional to the number of viable cells. The cells were seeded in 96-multiwell plates in 100 μl of the appropriate complete culture medium at a concentration of 7 × 10^3 cells/well in the case of BJ cells (normal fibroblasts), 1 × 10^4 cells/well in the case of A549 cells (lung cancer), 1.5 × 10^4 cells/well in the case of HepG2 cells (liver cancer), and 2 × 10^4 cells/well in the case of MCF-7 cells (breast cancer) so as to obtain 60–70% confluent culture after 24 h of incubation at 37 °C – the cells are then in the log (logarithmic) phase, during a period of active proliferation, but still have an unoccupied space to divide. Afterwards, the culture medium was discarded and replaced with 100 µl of different concentrations of new tested compounds and reference antiproliferative agent: irinotecan. The stock solutions of the compounds were prepared in DMSO, and solvent control was being tested concurrently to exclude toxicity attributed to DMSO. Ten serial two-fold dilutions using culture medium were performed to prepare different concentrations of the tested compounds, and the highest tested concentration was 200 µg/ml. Untreated cells (maintained in the complete culture medium) served as a negative control. After exposing cells for 48 h to the tested derivatives, the MTT assay was performed as described earlier. Three independent experiments (n = 3) were performed in a quadruplicate. The obtained data were analysed using GraphPad Prism 5, version 5.03 software (La Jolla, CA). […] Moreover, safety index (SI) was calculated using the following formula: SI=IC50normal cells (BJ)/IC50cancer cells

[2] = system: human breast adenocarcinoma (MCF-7); assay: MTT antiproliferative assay, MCF-7 cells; format: cell-based; settings: for IC50: Homo sapiens, MCF7, MTT, 48 h exposure, read-out: IC50 [µg/ml] ± SEM, MCF-7
Experimental: as §1

[3] = system: methicillin-resistant S. aureus MIKROBANK 14.001; assay: Broth microdilution MIC, methicillin-resistant S. aureus; format: cell-based, Staphylococcus aureus; settings: methicillin-resistant strain, 18 h, 35 °C; for MIC: Staphylococcus aureus, read-out: Minimal inhibitory concentration MIC, Staphylococcus aureus MIKROBANK 14.001
Experimental: (§2) Newly synthesised compounds’ antibacterial activities were tested in vitro against six aerobic bacteria reference strains: three Gram-positive (Staphylococcus aureus ATCC 25923, methicillin-resistant S. aureus MIKROBANK 14.001 reference strain from National Medicines Institute in Warsaw, and Staphylococcus epidermidis ATCC 12228) and three Gram-negative (Escherichia coli ATCC 25922, Proteus mirabilis ATCC 12453, and Pseudomonas aeruginosa ATCC 9027).
(§3) Bacterial cell suspensions equivalent to 0.5 McFarland (1.5 × 10^8 CFU/ml) were prepared in 0.85% sterile saline. Tested compounds’ stock solutions (50 mg/ml) were dissolved in dimethyl sulphoxide (DMSO).
(§4) Bacteria strain susceptibility to tested agents was determined by broth microdilution method. Broth microdilution method was carried out in accordance with Clinical and Laboratory Standards Institute recommendations and was used as reference method. Mueller–Hinton broth containing two-fold dilutions of the tested substances (at concentrations ranging from 3.91 to 1000 µg/ml) was used to determine their minimal inhibitory concentration (MIC) which is the lowest concentration of an antibacterial that will inhibit the visible growth of a microorganism after 18 h of incubation). Mueller–Hinton broth is recommended as the medium of choice for susceptibility testing of commonly isolated, rapidly growing aerobic, or facultative organisms. Gentamicin (KRKA, Slovenia), an aminoglycoside antibiotic active against a wide range of human bacterial infections, mostly Gram-negative bacteria including Pseudomonas, Proteus, Serratia, and the Gram-positive Staphylococcus, was used as a control antibacterial agent (at concentration from 0.12 µg to 1000 µg).
(§5) Tested compounds two-fold dilutions in Mueller–Hinton broth without bacteria were blank control wells (incubated on equal conditions). Polystyrene trays containing 96 wells were filled with serial two-fold Mueller–Hinton broth dilutions of tested agents. Next, the broth was inoculated with 20 μl of 0.5 McFarland microbial suspension (previously diluted 1:10 by Mueller–Hinton broth). Total volume per each well was 200 μl. After incubation (at 35 °C for 18 h), bacterial cultures’ optical density was measured by microplate reader (BioTek Synergy H4 Hybrid Reader) at 600 nm. The MIC values were determined by the comparison of broth bacterial culture OD600 containing tested concentrations of examined substances to blank control wells.

[4] = system: human hepatocellular carcinoma (HepG2); assay: MTT antiproliferative assay, HepG2 cells; format: cell-based; settings: for IC50: Homo sapiens, MTT, 48 h exposure, read-out: IC50 [µg/ml] ± SEM, HepG2
Experimental: as §1

[5] = system: Staphylococcus epidermidis ATCC 12228; assay: Broth microdilution MIC, S. epidermidis ATCC 12228; format: cell-based; settings: 35 °C; for Minimal inhibitory concentration MIC, Staphylococcus epidermidis 12228: 18 h; for MIC: Staphylococcus epidermidis, ATCC12228, 18 h, read-out: Minimal inhibitory concentration MIC, Staphylococcus epidermidis 12228
Experimental: as §2, §3, §4, §5

[6] = system: Escherichia coli ATCC 25922; assay: Broth microdilution MIC, E. coli ATCC 25922; format: cell-based; settings: ATCC25922, 18 h, 35 °C, read-out: Concentration inhibiting E. coli ATCC 25922 growth (MIC)
Experimental: as §2, §3
Bacteria strain susceptibility to tested agents was determined by broth microdilution method. Broth microdilution method was carried out in accordance with Clinical and Laboratory Standards Institute recommendations and was used as reference method. […]
Tested compounds two-fold dilutions in Mueller–Hinton broth without bacteria were blank control wells (incubated on equal conditions). […] After incubation (at 35 °C for 18 h), bacterial cultures’ optical density was measured by microplate reader (BioTek Synergy H4 Hybrid Reader) at 600 nm. The MIC values were determined by the comparison of broth bacterial culture OD600 containing tested concentrations of examined substances to blank control wells.

[7] = system: Staphylococcus aureus ATCC 25923; assay: Broth microdilution MIC, S. aureus ATCC 25923; format: cell-based; settings: 35 °C; for Minimal inhibitory concentration MIC, Staphylococcus aureus 25923: 18 h; for MIC: Staphylococcus aureus, ATCC25923, 18 h, read-out: Minimal inhibitory concentration MIC, Staphylococcus aureus 25923
Experimental: as §2, §3, §4, §5

[8] = system: normal human skin fibroblasts (BJ); assay: MTT assay, normal fibroblasts BJ; format: cell-based; settings: Skin fibroblast, 48 h exposure, read-out: IC50 [µg/ml] ± SEM, BJ
Experimental: as §1

[9] = MCF-7 cells, compared to irinotecan

| melting point | IC50 ([1]; A549 cells) | IC50 ([2]; MCF-7 cells) | MIC [3] | Minimal inhibitory concentration MIC, Staphylococcus aureus MIKROBANK 14.001 [3] | IC50 ([4]; HepG2 cells) | Minimal inhibitory concentration MIC, Staphylococcus epidermidis 12228 [5] | MIC [5] | Minimal inhibitory concentration MIC, Staphylococcus aureus 25923 [7] | MIC [7] | SMILES | SI [IC50BJ/IC50], A549 [1] | IC50 [8] | also measured |
| --- | --- | --- | --- | --- | --- | --- | --- | --- | --- | --- | --- | --- | --- |
| – | – | – | – | – | – | – | – | – | – | COc1cc(-c2nnc(NC(=O)CC3SC(=O)NC3=O)s2)cc(OC)c1OC (stereo not drawn) [2-(2,4-dioxo-1,3-thiazolidin-5-yl)-N-[5-(3,4,5-trimethoxyphenyl)-1,3,4-thiadiazol-2-yl]acetamide] | – | – | IC50, A549 (literature) (A549): 12.7 µg/mL (≈ 29.9 µM); IC50, MCF-7 (literature) (MCF-7): 15.28 µg/mL (≈ 36 µM) |
| 243 to 245 °C | 8.08 ± 1.05 µg/mL (≈ 18.8 µM) | 1.59 ± 1.06 µg/mL (≈ 3.7 µM) | 125 µg/mL | 125 µg/mL | 3.86 ± 1.07 µg/mL (≈ 8.98 µM) | 125 µg/mL | 125 µg/mL | 62.5 µg/mL | 62.5 µg/mL | O=C(C=C1SC(=O)NC1=O)Oc1ccccc1C=NNC(=O)c1cccc(Cl)c1 [Compound 18, 2-{[2-(3-Chlorobenzoyl)hydrazinylidene]methyl}phenyl (2,4-dioxo-1,3-thiazolidin-5-ylidene)acetate] | 1.24 | 10.1 ± 1.18 µg/mL (≈ 23.4 µM) | IC50 fold lower compared to irinotecan, A549 ([1]; A549 cells, compared to irinotecan): five-fold lower; IC50 fold lower than IC50 of irinotecan, MCF-7 [2, 9]: 13 fold; SI value compared to the reference substance, MCF-7 [2, 9]: three-fold higher; IC50 fold lower compared to irinotecan, HepG2 ([4]; HepG2 cells, compared to irinotecan): four-fold lower; MIC [6]: 125 µg/mL |
| 194 to 196 °C | 31.3 ± 1.66 µg/mL (≈ 70.8 µM) | 34.2 ± 1.12 µg/mL (≈ 77.2 µM) | 125 µg/mL | 125 µg/mL | 15.2 ± 1.25 µg/mL (≈ 34.3 µM) | 62.5 µg/mL | 62.5 µg/mL | 125 µg/mL | 125 µg/mL | Cc1ccc(NC(=S)NN=Cc2cccc(OC(=O)CC3SC(=O)NC3=O)c2)cc1 (stereo not drawn) [Compound 23, 3-[{2-[(4-Methylphenyl)carbamothioyl]hydrazinylidene}methyl]phenyl (2,4-dioxo-1,3-thiazolidin-5-yl)acetate] | 0.80 | 25.2 ± 1.52 µg/mL (≈ 56.9 µM) | SI [IC50BJ/IC50], MCF-7 ([2]; safety index = IC50 normal cells (BJ)/IC50 MCF-7): 0.74; SI [IC50BJ/IC50], HepG2 ([4]; safety index = IC50 normal cells (BJ)/IC50 HepG2): 1.66 |
